Assay results from publication PMC10937556, “Phenolic phytochemistry, in vitro, in silico, in vivo, and mechanistic anti-inflammatory and antioxidant evaluations of Habenaria digitata” (Frontiers in Pharmacology, 2024).

What was measured:
[1] = ABTS free radical scavenging assay
Procedure: The ABTS anti-radicals’ analysis was carried out according to [Shah et al. (2015)]. The ABTS solution was prepared by dissolving ABTS salt (192 mg) in distilled H2O, transferred to a flask (50 mL), and volume was adjusted. Thereafter, 1 mL of the preceding solution was added to 17 µL of K₂S₂O₈ (140 mM) and placed in the dark for 24 h s. The experiment’s ultimate ABTS dilution was achieved by mixing 1 mL of the reaction mixture with 50 mL of methanol. The ABTS solution (190 µL) was mixed with the sample solution (10 µL) and added to 96-well plates, which were then incubated at room temperature in dark for 2 h. Following incubation, the measurement of ABTS color intensity was conducted using a microplate reader at 734 nm. Positive control solutions were prepared at values of 1,000–62.5 µM. The percentage of ABTS scavenging was determined by using the following equation: % ABTS scavenging=Control−Sample/control×100.

[2] = H2O2 free radical scavenging activity
Procedure: The antioxidant potential of isolated compounds was determined using this approach. In a phosphate buffer solution (50 mM, pH 7.40), a solution of H2O2 (2 mM) was produced. The crude extract (0.10 mL) was measured in a test tube and diluted to 0.40 mL using phosphate buffer. Thereafter, H2O2 (0.60 mL) was added and thoroughly mixed. […] 230 nm was used to measure the absorbance of the sample and the standard ([Sadiq et al., 2018]). For all the crude samples, the exact process was followed. According to the procedure, the inhibition percentage and IC50 values were computed.

[3] = system: carrageenan-induced paw edema; test: Carrageenan-induced paw edema; assay type: in vivo, mice
Procedure: Mice of both sexes (25–30 g) were used for in vivo anti-inflammatory activity of test samples on the carrageenan-induced inflammation model ([Munir et al., 2020]). Mice were distributed into five groups, with eight animals in each group, divided at random. Group-I served as the negative control and received DMSO at a dose of 10 mL/kg body weight. Group-II served as a positive control, which received aspirin at a dose of 100 mg/kg body weight. […] Each mouse received 1 percent (w/v) saline solution (0.05 mL) of carrageenan in the sub-planter region after a 30-min interval. The paw edema volume was determined using a plethysmometer (LE 7500-plan lab S.L) at 1–5 h intervals after carrageenan was given. […] The percentages of inhibition of inflammation were calculated using the formula given below: % inhibition=EC−ET/EC×100, where “EC” is the average edema of control and “ET” is the edema of the tested group.

[4] = system: SOD; test: In vivo antioxidant: SOD activity in brain, heart, liver; parameters: species or system mice; conditions: for SOD activity: D-galactose aging mice
[5] = system: GSH-Px; test: In vivo antioxidant: GSH-Px activity in brain, heart, liver; conditions: D-galactose aging mice
Procedure: (§1) Twenty male albino mice were distributed into four groups, each with five mice. The control group (group 1) received 0.4 mL of distilled water. The compound was given in doses of 2.5, 5, and 10 mg/kg to groups 2, 3, and 4, respectively. Throughout the trial, the mice were given a daily dose for 3 weeks and were evaluated for alterations, other symptoms of toxicity, and death on a daily basis. Blood obtained by a direct heart puncture was utilized to assess the compound’s in vivo antioxidant activity 24 hours following the last dose ([Mota et al., 2023]).
The brain, liver, and heart homogenates were prepared in the cold saline via a homogenizer, and the unsolvable extract was discarded by centrifugation at 10,000 rpm for 15 min at temperature 4°C. After that, the supernatant was extracted immediately for GSH-Px assay ([Li et al., 2021]).

[6] = system: MDA; test: In vivo antioxidant: MDA level; parameters: species or system mice; conditions: compound 1 (20 mg)
[7] = system: CAT; test: In vivo antioxidant: CAT activity; parameters: species or system mice; conditions: high tested dose
Procedure: as §1, with “Blood obtained by a direct heart puncture was utilized to assess the compound’s in vivo antioxidant activity 24 hours following the last dose ([Mota et al., 2023]).” left out
[…] […] The reaction was started by adding 0.1 mL of fresh 30 mM H2O2, and the decomposition rate of H2O2 was measured on a spectrophotometer at 240 nm for 5 min. Catalase activity was determined using a molar extinction coefficient of 0.041 mM^−1 cm^−1.

[8] = system: histamine-induced paw edema; test: Histamine-induced paw edema; conditions: 20 mg/kg, 2nd hour
Procedure: (§2) Employing prostaglandin E2, bradykinin, leukotriene, and histamine induced paw edema assays; the potential anti-inflammatory mechanism of the isolated compound was investigated. […] Sub-planter injections of prostaglandin E2 (0.01 mg/mL) or 10 mg/mL leukotriene or bradykinin (20 mg/mL) or 0.1 mL histamine (1 mg/mL) produced paw edema after 1 h. Each mouse’s paw volume was assessed immediately before and after sub-planter injection of various irritants (inflammatory agents) at 1–5 h.

[9] = system: bradykinin-induced paw edema; test: Bradykinin-induced paw edema
Procedure: as §2

[10] = system: leukotriene-induced paw edema; test: Leukotriene-induced paw edema; conditions: 20 mg/kg
Procedure: as §2

[11] = system: prostaglandin E2-induced paw edema; test: Prostaglandin E2-induced paw edema; conditions: 20 mg/kg, 4th hour (maximal)
Procedure: as §2

SMILES: Cc1cnc(O)nc1O [Compound 1, 5-methylpyrimidine-24,4-diol]
- ABTS IC50 [1]: 0.98 µg/mL
- ABTS % inhibition ([1]; 62.5 µg/mL): 75.90 ± 0.48 %
- ABTS % inhibition ([1]; 125 µg/mL): 79.03 ± 0.48 %
- ABTS % inhibition ([1]; 250 µg/mL): 84.90 ± 0.96 %
- ABTS % inhibition ([1]; 500 µg/mL): 87.65 ± 1.34 %
- ABTS % inhibition ([1]; 1,000 µg/mL): 91.58 ± 1.12 %
- H2O2 IC50 [2]: 05 µg/mL
- H2O2 % inhibition ([2]; 62.5 µg/mL): 69.91 ± 1.30 ^ns %
- H2O2 % inhibition ([2]; 125 µg/mL): 71.76 ± 0.61 ^ns %
- H2O2 % inhibition ([2]; 250 µg/mL): 76.87 ± 1.27 ^ns %
- H2O2 % inhibition ([2]; 500 µg/mL): 81.13 ± 0.20^ns %
- H2O2 % inhibition ([2]; 1,000 µg/mL): 85.20 ± 0.23^ns %
- Percentage inhibition of paw edema ([3]; dose 5 mg/kg, 1 h): 46.72 ± 2.63 ns %
- Percentage inhibition of paw edema ([3]; dose 5 mg/kg, 2 h): 50.46 ± 2.52 %
- Percentage inhibition of paw edema ([3]; dose 5 mg/kg, 3 h): 53.58 ± 1.33 %
- Percentage inhibition of paw edema ([3]; dose 5 mg/kg, 4 h): 52.37 ± 1.46 %
- Percentage inhibition of paw edema ([3]; dose 5 mg/kg, 5 h): 55.23 ± 1.61 %
- Percentage inhibition of paw edema ([3]; dose 10 mg/kg, 1 h): 51.37 ± 2.23 %
- Percentage inhibition of paw edema ([3]; dose 10 mg/kg, 2 h): 53.56 ± 3.57 %
- Percentage inhibition of paw edema ([3]; dose 10 mg/kg, 3 h): 56.56 ± 1.57 %
- Percentage inhibition of paw edema ([3]; dose 10 mg/kg, 4 h): 55.76 ± 2.62 %
- Percentage inhibition of paw edema ([3]; dose 10 mg/kg, 5 h): 61.68 ± 2.77 %
- Percentage inhibition of paw edema ([3]; dose 20 mg/kg, 1 h): 54.27 ± 3.06 %
- Percentage inhibition of paw edema ([3]; dose 20 mg/kg, 2 h): 56.38 ± 1.67 %
- Percentage inhibition of paw edema ([3]; dose 20 mg/kg, 3 h): 59.74 ± 2.67 %
- Percentage inhibition of paw edema ([3]; dose 20 mg/kg, 4 h): 58.02 ± 1.95 %
- SOD activity ([4]; brain, high-dosage group): 95 U/mL
- SOD activity ([4]; heart, compound 1 (10 mg) group): 140.0 U/mg proteins
- SOD activity ([4]; heart, high-dosage group): 180.0 U/mg proteins
- SOD activity ([4]; liver, high-dosage group): 890.0 U/mg protein
- SOD activity compared to the model group ([4]; p < 0.05, D-galactose aging mice): higher
- GSH-Px activity in brain, heart and liver [5]: enhances the activity of GSH-Px
- MDA concentration ([6]; brain): 1.15 nmol/mL
- MDA concentration ([6]; heart): 0.8 nmol/mg protein
- MDA concentration ([6]; liver): 0.4 nmol/mg protein
- CAT activity ([7]; brain): 97 U/mL
- CAT activity ([7]; heart): 143.02 U/mg protein
- CAT activity ([7]; liver): 139.0 U/mg protein
- Percentage inhibition of histamine-induced paw edema [8]: 28.12 ± 0.62%
- Percentage inhibition of bradykinin-induced paw edema ([9]; 20 mg/kg, initial hour): 9.20 ± 1.12%
- Activity against bradykinin-induced paw edema ([9]; low doses): no activity
- Percentage inhibition of leukotriene-induced paw edema ([10]; 1 h): 53.00 ± 1.10%
- Percentage inhibition of leukotriene-induced paw edema ([10]; 2 h): 59.50 ± 0.92%
- Percentage inhibition of leukotriene-induced paw edema ([10]; 3 h): 62.0 ± 0.70%
- Percentage inhibition of leukotriene-induced paw edema ([10]; 4 h): 54.84 ± 0.92%
- Percentage inhibition of leukotriene-induced paw edema ([10]; 5 h): 41.43 ± 1.10%
- Percentage inhibition of prostaglandin E2-induced paw edema [11]: 82.0 ± 0.34%

SMILES: CC1=C(O)C(=O)C(O)CO1 (centres unmarked) [Compound 2, 3,5-dihydroxy-6-methyl-2,3-dihydro-4H-pyran-4-one]
- ABTS IC50 [1]: 03 µg/mL
- ABTS % inhibition ([1]; 62.5 µg/mL): 68.52 ± 0.38 %
- ABTS % inhibition ([1]; 125 µg/mL): 72.64 ± 0.16 %
- ABTS % inhibition ([1]; 250 µg/mL): 77.61 ± 1.70 %
- ABTS % inhibition ([1]; 500 µg/mL): 81.94 ± 0.45 %
- ABTS % inhibition ([1]; 1,000 µg/mL): 86.47 ± 0.22 %
- H2O2 IC50 [2]: 06 µg/mL
- H2O2 % inhibition ([2]; 62.5 µg/mL): 67.90 ± 1.16 ^ns %
- H2O2 % inhibition ([2]; 125 µg/mL): 71.34 ± 0.55 ^ns %
- H2O2 % inhibition ([2]; 250 µg/mL): 75.36 ± 0.49 ^ns %
- H2O2 % inhibition ([2]; 500 µg/mL): 80.39 ± 0.49 ^ns %
- H2O2 % inhibition ([2]; 1,000 µg/mL): 86.39 ± 0.60 ^ns %

SMILES: Cc1ccc(C(C)C)c(O)c1 [Compound 3, 2-isopropyl-5-methylphenol]
- ABTS IC50 [1]: 21 µg/mL
- ABTS % inhibition ([1]; 62.5 µg/mL): 65.00 ± 0.30 %
- ABTS % inhibition ([1]; 125 µg/mL): 72.54 ± 0.50 %
- ABTS % inhibition ([1]; 250 µg/mL): 76.69 ± 0.77 %
- ABTS % inhibition ([1]; 500 µg/mL): 83.67 ± 0.61 %
- ABTS % inhibition ([1]; 1,000 µg/mL): 87.79 ± 0.63 %
- H2O2 IC50 [2]: 33 µg/mL
- H2O2 % inhibition ([2]; 62.5 µg/mL): 58.74 ± 0.68 %
- H2O2 % inhibition ([2]; 125 µg/mL): 62.70 ± 1.25 %
- H2O2 % inhibition ([2]; 250 µg/mL): 67.05 ± 0.75 %
- H2O2 % inhibition ([2]; 500 µg/mL): 72.32 ± 1.06 %
- H2O2 % inhibition ([2]; 1,000 µg/mL): 77.34 ± 0.98 %

SMILES: C=Cc1ccc(O)cc1OC [Compound 4, 3-methoxy-4-vinylphenol]
- ABTS IC50 [1]: 42 µg/mL
- ABTS % inhibition ([1]; 62.5 µg/mL): 57.00 ± 1.15 %
- ABTS % inhibition ([1]; 125 µg/mL): 61.67 ± 0.89 %
- ABTS % inhibition ([1]; 250 µg/mL): 65.00 ± 0.58 %
- ABTS % inhibition ([1]; 500 µg/mL): 72.03 ± 0.23 %
- ABTS % inhibition ([1]; 1,000 µg/mL): 75.33 ± 0.49 %
- H2O2 IC50 [2]: 65 µg/mL
- H2O2 % inhibition ([2]; 62.5 µg/mL): 53.90 ± 0.48 %
- H2O2 % inhibition ([2]; 125 µg/mL): 57.03 ± 0.48 %
- H2O2 % inhibition ([2]; 250 µg/mL): 62.90 ± 0.96 %
- H2O2 % inhibition ([2]; 500 µg/mL): 65.65 ± 1.34 %
- H2O2 % inhibition ([2]; 1,000 µg/mL): 69.58 ± 1.12 %

SMILES: C=Cc1cc(OC)c(O)c(OC)c1 [Compound 5, 2,6-dimethoxy-4-vinylphenol]
- ABTS IC50 [1]: 30 µg/mL
- ABTS % inhibition ([1]; 62.5 µg/mL): 60.59 ± 0.30 %
- ABTS % inhibition ([1]; 125 µg/mL): 63.08 ± 1.04 %
- ABTS % inhibition ([1]; 250 µg/mL): 68.76 ± 0.61 %
- ABTS % inhibition ([1]; 500 µg/mL): 74.31 ± 0.58 %
- ABTS % inhibition ([1]; 1,000 µg/mL): 79.49 ± 0.60 %
- H2O2 IC50 [2]: 35 µg/mL
- H2O2 % inhibition ([2]; 62.5 µg/mL): 57.51 ± 0.62 %
- H2O2 % inhibition ([2]; 125 µg/mL): 62.46 ± 0.47 %
- H2O2 % inhibition ([2]; 250 µg/mL): 66.68 ± 0.64 %
- H2O2 % inhibition ([2]; 500 µg/mL): 70.53 ± 0.41 %
- H2O2 % inhibition ([2]; 1,000 µg/mL): 76.42 ± 0.46 %
